# Reference: patent publication US20240180895A1, “USE OF KAPPA OPIOID RECEPTOR AGONISTS TO TREAT CARDIOVASCULAR DISEASE” (Board of Supervisors of Louisiana State University and …, priority 2021, published 2024)
# Tests used:
# Type in all cases: in vivo, rat
# [1] = test system: conscious Sprague-Dawley rats; test: Acute cardiovascular and renal excretory studies, i.v. bolus (Example 3)
# Method: (§1) Animals: Male Sprague-Dawley (SD) rats (Envigo Labs, Indianapolis, IN), 300-350 g, were individually housed under a 12 h light-dark cycle and allowed tap water and standard rodent diet ad libitum. Rats were randomly assigned to experimental groups for all acute and subacute studies. All procedures were approved by the Louisiana State University Health Sciences Center Institutional Animal Care and Use Committee and conducted in accordance with the National Institutes of Health guidelines for the care and use of animals.
# Surgical Procedures: Aseptic technique was followed for all surgical procedures. On the morning of the experiment, rats were anesthetized with and maintained under inhaled 2% isoflurane, and polyethylene catheters (PE50; BD Diagnostics, Sparks, MD) were surgically inserted into the left femoral vein and left femoral artery for the infusion of saline and/or drug administration and the recording of arterial blood pressure, respectively. Subsequently, a suprapubic incision was made and a flanged polyethylene catheter (PE240; BD Diagnostics, Sparks, MD) was inserted into the bladder, exteriorized, and sutured to surrounding muscle and skin. Rats were then placed in an elevated restrainer (Krowicki & Kapusta, 2011) to recover from surgery and allow collection of urine. When acute experimental protocols were completed, rats were anesthetized via isoflurane and decapitated.
# Acute Cardiovascular and Renal Excretory Studies: Following surgery, rats received an i.v. infusion of isotonic saline at 55 μL min^−1 throughout the duration of the experiment and were allowed 4-6 hours to recover from anesthesia. Arterial catheters were connected to a pressure transducer (MLT0670, ADInstruments, Sydney, Australia), which was connected to Powerlab 8/30 (ADInstruments) for recording of pulsatile and mean arterial blood pressure (MAP) and heart rate (HR). Blood pressure and HR were visualized using LabChart software (v8.1.5; ADInstruments). […] Following this control period, drug or vehicle (isotonic saline) was injected into the femoral vein catheter at a volume of 2 cc kg^−1, and urines were collected in 10 minute periods for a span of 90 minutes. […] All groups are n=6. Urine volume was measured gravimetrically, urine sodium and potassium concentrations were measured using flame photometry (model 943; Instrumentation Laboratories, Lexington, MA), and urine osmolality was measured using a vapor pressure osmometer (model 5600; WESCOR, Logan, UT).
# (§2) Experimental Design and Analysis: All results are expressed as mean±SEM. […] Means between groups for total urine output, Na^+ concentration, K^+ concentration, and urine osmolality were compared using a Student's t-test. Statistical significance was characterized as P<0.05. Statistics were carried out using Prism 7.05 software (GraphPad Software, Inc., San Diego, CA) and IBM SPSS Statistics (IBM, Armonk, NY).
# [2] = test system: conscious Sprague-Dawley rats; test: Metabolic cage renal excretory studies, oral gavage (Example 3); conditions: oral gavage, mean±SEM
# Method: as §1
# Metabolic Cage Renal Excretory Studies: Rats were placed in metabolic cages (model 18cv, Fenco, Cataumet, MA) for 2 hours to allow for acclimation and voiding of residual urine. Following the acclimation period, rats were volume loaded with 20 cc kg^−1 drug or vehicle (isotonic saline) via oral gavage. Urines were collected each hour over a 5-hour period. Following completion of the study rats were returned to their home cages. […] These points are marked on the figures with number of measurements in parentheses.
# as §2
# Sprague-Dawley rats [3] = test: Prevention of diuretic resistance to once daily furosemide by difelikefalin, 24-hour urine (FIG. 14)
# Method: (§3) Male Sprague-Dawley rats were placed in individual metabolic cages in a room with 12-hour automatic light on/off control and allowed tap water and rodent chow ad libitum. Over the next two (2) days (control period), rats were administered vehicle (5% NaOH; 1 M PBS, IP) in the morning (9:00 am) and urine was then collected for 24-hours.
# Sprague-Dawley rats [4] = test: Prevention of diuretic resistance to twice daily furosemide by nalfurafine, 5-hour urine (FIG. 15)
# Method: (§4) Male Sprague-Dawley rats were placed in individual metabolic cages in a room with 12-hour automatic light on/off control and allowed tap water and rodent chow ad libitum. Over the next two (2) days (control period), rats were administered vehicle (5% NaOH; 1 M PBS, IP) in the morning (9:00 am) and afternoon (2:00 pm) of each day, with urine collected for 5-hours starting immediately after the first injection. […] This was repeated for 4 consecutive days (experimental period).
# [5] = test system: Sprague-Dawley rats placed on a low-salt diet; test: Reversal of furosemide diuretic resistance by difelikefalin in rats on a low sodium diet (FIG. 16); conditions: low sodium diet
# Method: as §3, with “water. For these studies, rats were placed on a low-salt diet (0.1% NaCl) for one week prior to” for “water”, “throughout” for “rodent chow ad libitum. Over”, “experimental protocol. […] For the first” for “next”, “5-hours.” for “24-hours.”
# Sprague-Dawley rats [6] = test: Reversal of oral furosemide diuretic resistance by oral nalfurafine (FIG. 17)
# Method: as §4, with “PBS) orally (gavage)” for “PBS, IP)”, “and” for “of each day, with”, “urine was” for “urine”, “5-hours” for “5-hours starting immediately”, “oral treatment.” for “injection.”, “8” for “4”
# [7] = i.v. bolus, cumulative 90-min urine, same doses, mean±SEM
# [8] = cumulative 5-hour urine, same doses
smiles,measurement,setting,value
NS(=O)(=O)c1cc(C(=O)O)c(NCc2ccco2)cc1Cl [furosemide],Duration of the increase in urine flow rate above control,[1]; after i.v. bolus,30 min
same,Time of peak diuresis (urine flow rate),[1]; after i.v. bolus,10 min
same,Effect on heart rate (HR),"[1]; i.v. bolus, 90-min protocol",did not produce any change in MAP or HR
same,Effect on MAP,"[1]; i.v. bolus, diuretic alone, 90-min protocol",did not produce any change in MAP or HR
same,Potassium concentration [K+] in cumulative urine,[1]; [7],14.51±0.63 μeq ml^−1
same,Sodium concentration [Na+] in cumulative urine,[1]; [7],138±1.58 μeq ml^−1
same,Urine osmolality,[1]; [7],379.8 ± 15.33 mmol/kg
same,Total urine output,"[1]; i.v. bolus, cumulative urine of 90-min protocol, nalfurafine 5 μg kg−1, furosemide 7.5 mg kg−1, HCTZ 2.5 mg kg−1, amiloride 2 mg kg−1, mean±SEM, n=6",9.20 ± 0.75 mL
same,Potassium concentration [K+] in cumulative urine,[2]; [8],23.94±1.02 μeq ml^−1
same,Sodium concentration [Na+] in cumulative urine,[2]; [8],96.76±2.66 μeq ml^−1
same,Total urine output,"[2]; cumulative urine of 5-hour protocol, nalfurafine 150 μg kg−1, furosemide 50 mg kg−1, HCTZ 5 mg kg−1, amiloride 5 mg kg−1, n=6",18.28 ± 0.67 mL
same,Day of peak diuresis,Sprague-Dawley rats [3]; once daily IP for 10 days,2 days
same,24-hour urine output on day 10,"Sprague-Dawley rats [3]; once daily IP, furosemide 10 mg/kg alone or with difelikefalin 20 μg/kg, day 10",5.57 ± 0.63 mL
same,24-hour urine output at peak diuresis,"Sprague-Dawley rats [3]; once daily IP, furosemide 10 mg/kg alone or with difelikefalin 20 μg/kg, mean±SEM",14.98 ± 1.85 mL
same,Day of peak diuresis,Sprague-Dawley rats [4]; twice daily IP for 4 days,1 days
same,5-hour urine output on day 4,"Sprague-Dawley rats [4]; twice daily IP, furosemide 20 mg/kg alone or with nalfurafine 10 μg/kg, day 4",7.41 ± 1.40 mL
same,5-hour urine output at peak diuresis,"Sprague-Dawley rats [4]; twice daily IP, furosemide 20 mg/kg alone or with nalfurafine 10 μg/kg, mean±SEM",13.99 ± 0.72 mL
same,5-hour urine output on day 12,"[5]; furosemide 10 mg/kg IP once daily alone, day 12",4.43 ± 0.54 mL
same,5-hour urine output at peak diuresis,"[5]; furosemide 10 mg/kg IP once daily, day 1",9.86 ± 0.76 mL
same,Day of peak diuresis,[5]; furosemide alone,1 days
same,5-hour urine output at peak diuresis,"Sprague-Dawley rats [6]; furosemide (20 mg/kg per method) orally twice per day, day 1",13.97 ± 0.64 mL
same,5-hour urine output on day 6,"Sprague-Dawley rats [6]; furosemide alone orally twice per day, day 6",5.61 ± 1.14 mL
same,Day of peak diuresis,"Sprague-Dawley rats [6]; furosemide alone, oral",1 days
